Laboratory results from paper PMC5218480 (PLoS ONE, 2017).

Test system: MV-4-11 cells
Experiment: Gene expression microarray analysis (Affymetrix PrimeView) and GSEA
Type: cell-based, human
Set-up: RFU PODN (11730768_x_at) / Fold change /veh PODN (11730768_x_at) / RFU LINC00158 (11744669_a_at) / Fold change /veh LINC00158 (11744669_a_at) / RFU DUSP10 (11751237_a_at) / Fold change /veh DUSP10 (11751237_a_at) / RFU ID3 (11757404_x_at) / Fold change /veh ID3 (11757404_x_at) / RFU PLEKHG5 (11737974_s_at) / Fold change /veh PLEKHG5 (11737974_s_at) / RFU LRRC4B (11730491_at) / Fold change /veh LRRC4B (11730491_at) / RFU GIMAP4 (11747438_a_at) / Fold change /veh GIMAP4 (11747438_a_at) / RFU KRT8 (11758183_x_at) / Fold change /veh KRT8 (11758183_x_at) / RFU CNN1 (11734310_a_at) / Fold change /veh CNN1 (11734310_a_at) / RFU VPS37D (11726825_at) / Fold change /veh VPS37D (11726825_at) / RFU C10orf10 (11716522_x_at) / Fold change /veh C10orf10 (11716522_x_at) / RFU KIR2DL2 /// KIR2DL4 /// KIR2DL5A /// KIR2DL5B /// KIR2DS1 /// KIR2DS2 /// KIR2DS3 /// KIR2DS4 /// KIR3DL3 /// KIR3DL3 /// KIR3DS1 (11738374_at) / Fold change /veh KIR2DL2 /// KIR2DL4 /// KIR2DL5A /// KIR2DL5B /// KIR2DS1 /// KIR2DS2 /// KIR2DS3 /// KIR2DS4 /// KIR3DL3 /// KIR3DL3 /// KIR3DS1 (11738374_at) / RFU C1QL1 (11718748_at) / Fold change /veh C1QL1 (11718748_at) / RFU TMPRSS4 (11747572_a_at) / Fold change /veh TMPRSS4 (11747572_a_at) / RFU HAMP (11756126_x_at) / Fold change /veh HAMP (11756126_x_at) / RFU RNFT2 (11725882_a_at) / Fold change /veh RNFT2 (11725882_a_at) / RFU NR4A2 (11747474_a_at) / Fold change /veh NR4A2 (11747474_a_at) / RFU ABCC12 (11746883_a_at) / Fold change /veh ABCC12 (11746883_a_at) / RFU TMEM136 (11760407_x_at) / Fold change /veh TMEM136 (11760407_x_at) / RFU CLDN22 /// WWC2 (11732394_at) / Fold change /veh CLDN22 /// WWC2 (11732394_at) / RFU HLA-DPB1 (11760878_x_at) / Fold change /veh HLA-DPB1 (11760878_x_at) / RFU SPINT1 (11716480_a_at) / Fold change /veh SPINT1 (11716480_a_at) / RFU GAP43 (11754022_s_at) / Fold change /veh GAP43 (11754022_s_at) / RFU A4GNT (11735810_at) / Fold change /veh A4GNT (11735810_at) / RFU PRB3 (11715151_x_at) / Fold change /veh PRB3 (11715151_x_at) / RFU TUBB4B (11761932_at) / Fold change /veh TUBB4B (11761932_at) / RFU CAPN14 (11732068_a_at) / Fold change /veh CAPN14 (11732068_a_at) / RFU TMCC2 (11721928_a_at) / Fold change /veh TMCC2 (11721928_a_at) / RFU IRGQ (11745062_a_at) / Fold change /veh IRGQ (11745062_a_at) / RFU FAM174B (11720279_a_at) / Fold change /veh FAM174B (11720279_a_at) / RFU TMPRSS4 (11748680_a_at) / Fold change /veh TMPRSS4 (11748680_a_at) / RFU FAM212B (11763350_a_at) / Fold change /veh FAM212B (11763350_a_at) / RFU PLEKHG5 (11743358_a_at) / Fold change /veh PLEKHG5 (11743358_a_at) / RFU ZSCAN30 (11745921_a_at) / Fold change /veh ZSCAN30 (11745921_a_at) / RFU CMKLR1 (11741424_a_at) / Fold change /veh CMKLR1 (11741424_a_at) / RFU LOC101060620 /// MAPK8IP1 (11723275_at) / Fold change /veh LOC101060620 /// MAPK8IP1 (11723275_at) / RFU SPTSSB (11747773_x_at) / Fold change /veh SPTSSB (11747773_x_at) / RFU PRSS12 (11739890_at) / Fold change /veh PRSS12 (11739890_at) / RFU BIN1 (11741810_x_at) / Fold change /veh BIN1 (11741810_x_at) / RFU WNT11 (11732464_a_at) / Fold change /veh WNT11 (11732464_a_at) / RFU C10orf10 (11716521_a_at) / Fold change /veh C10orf10 (11716521_a_at) / RFU C5orf56 (11738089_at) / Fold change /veh C5orf56 (11738089_at) / RFU CYB561 (11721691_x_at) / Fold change /veh CYB561 (11721691_x_at) / RFU ANKRD19P (11752326_a_at) / Fold change /veh ANKRD19P (11752326_a_at) / RFU OR2T12 /// OR2T33 /// OR2T8 (11738714_s_at) / Fold change /veh OR2T12 /// OR2T33 /// OR2T8 (11738714_s_at) / RFU VCAN (11748164_a_at) / Fold change /veh VCAN (11748164_a_at) / RFU JSRP1 (11732532_at) / Fold change /veh JSRP1 (11732532_at) / RFU KRTAP10-11 (11738290_x_at) / Fold change /veh KRTAP10-11 (11738290_x_at) / RFU MYO3A (11730013_a_at) / Fold change /veh MYO3A (11730013_a_at) / RFU EBF3 (11725865_a_at) / Fold change /veh EBF3 (11725865_a_at) / RFU CAMK2N1 (11719241_x_at) / Fold change /veh CAMK2N1 (11719241_x_at) / RFU C5orf56 (11738088_a_at) / Fold change /veh C5orf56 (11738088_a_at) / RFU OLFML3 (11715873_a_at) / Fold change /veh OLFML3 (11715873_a_at) / RFU LOC100653217 /// NTM (11731650_a_at) / Fold change /veh LOC100653217 /// NTM (11731650_a_at) / RFU MAPK11 (11762145_a_at) / Fold change /veh MAPK11 (11762145_a_at) / RFU FIZ1 (11724087_x_at) / Fold change /veh FIZ1 (11724087_x_at) / RFU OASL (11726364_x_at) / Fold change /veh OASL (11726364_x_at) / RFU SOX15 (11748057_x_at) / Fold change /veh SOX15 (11748057_x_at) / RFU CD79A (11719716_a_at) / Fold change /veh CD79A (11719716_a_at) / RFU HIST1H1D (11736915_at) / Fold change /veh HIST1H1D (11736915_at) / RFU CASKIN2 (11723855_a_at) / Fold change /veh CASKIN2 (11723855_a_at) / RFU LOC730098 (11760151_x_at) / Fold change /veh LOC730098 (11760151_x_at) / RFU OR4N2 (11742367_at) / Fold change /veh OR4N2 (11742367_at) / RFU PRRT2 (11749266_a_at) / Fold change /veh PRRT2 (11749266_a_at) / RFU SNX32 (11753110_a_at) / Fold change /veh SNX32 (11753110_a_at) / RFU CDHR5 (11726645_a_at) / Fold change /veh CDHR5 (11726645_a_at) / RFU RCAN1 (11760418_a_at) / Fold change /veh RCAN1 (11760418_a_at) / RFU FAM167A (11723789_a_at) / Fold change /veh FAM167A (11723789_a_at) / RFU FAM26E (11764081_at) / Fold change /veh FAM26E (11764081_at) / RFU ISYNA1 (11749810_s_at) / Fold change /veh ISYNA1 (11749810_s_at) / RFU ACY1 (11761880_at) / Fold change /veh ACY1 (11761880_at) / RFU 11764098_at / Fold change /veh 11764098_at / RFU SAMD14 (11745864_x_at) / Fold change /veh SAMD14 (11745864_x_at) / RFU NPB (11741838_a_at) / Fold change /veh NPB (11741838_a_at) / RFU TMPRSS6 (11731388_a_at) / Fold change /veh TMPRSS6 (11731388_a_at) / RFU KRTAP10-2 (11738614_at) / Fold change /veh KRTAP10-2 (11738614_at) / RFU ARHGAP8 /// PRR5-ARHGAP8 (11727945_x_at) / Fold change /veh ARHGAP8 /// PRR5-ARHGAP8 (11727945_x_at) / RFU KRTAP5-7 /// NADSYN1 (11734609_at) / Fold change /veh KRTAP5-7 /// NADSYN1 (11734609_at) / RFU RASL12 (11751679_a_at) / Fold change /veh RASL12 (11751679_a_at) / RFU CDKN2B (11736163_a_at) / Fold change /veh CDKN2B (11736163_a_at) / RFU PRF1 (11729649_at) / Fold change /veh PRF1 (11729649_at) / RFU, ZNF638 /// ZNF638-IT1 / Fold change vs veh, ZNF638 /// ZNF638-IT1 / RFU, PANK3 / Fold change vs veh, PANK3 / RFU, SH3YL1 / Fold change vs veh, SH3YL1 / RFU, ZEB2 / Fold change vs veh, ZEB2 / RFU, NRIP1 / Fold change vs veh, NRIP1 / RFU, PTTG1IP / Fold change vs veh, PTTG1IP / RFU, CAPN2 / Fold change vs veh, CAPN2 / RFU, MED14 / Fold change vs veh, MED14 / RFU, SNORA58 / Fold change vs veh, SNORA58 / RFU, C1orf63 / Fold change vs veh, C1orf63 / RFU, LRRFIP1 / Fold change vs veh, LRRFIP1 / RFU, NDUFAF7 / Fold change vs veh, NDUFAF7 / RFU, SLC12A2 / Fold change vs veh, SLC12A2 / RFU, IBTK / Fold change vs veh, IBTK / RFU, ESF1 / Fold change vs veh, ESF1 / Fold change vs veh, TMEM50B / RFU, TAOK1 / Fold change vs veh, TAOK1 / RFU, ACBD3 / Fold change vs veh, ACBD3 / RFU, TMA16 / Fold change vs veh, TMA16 / RFU, RWDD3 / Fold change vs veh, RWDD3 / RFU, BCAT1 / Fold change vs veh, BCAT1 / RFU, EDEM3 / Fold change vs veh, EDEM3 / RFU, TMEM33 / Fold change vs veh, TMEM33 / RFU, WDR75 / Fold change vs veh, WDR75 / RFU, AHCTF1 / Fold change vs veh, AHCTF1 / RFU, TFRC / Fold change vs veh, TFRC / RFU, ZDHHC17 / Fold change vs veh, ZDHHC17 / RFU, NOM1 / Fold change vs veh, NOM1 / RFU, ARL8B / Fold change vs veh, ARL8B / RFU, ZBTB11 / Fold change vs veh, ZBTB11 / RFU, TAMM41 / Fold change vs veh, TAMM41 / RFU, KIAA1704 /// LOC100996395 / Fold change vs veh, KIAA1704 /// LOC100996395 / RFU, ING1 / Fold change vs veh, ING1 / RFU, TRMT61B / Fold change vs veh, TRMT61B / RFU, FUBP3 / Fold change vs veh, FUBP3 / RFU, TP53 / Fold change vs veh, TP53 / RFU, TNKS2 / Fold change vs veh, TNKS2 / RFU, ZFP14 / Fold change vs veh, ZFP14 / RFU, ACTR2 / Fold change vs veh, ACTR2 / RFU, PPP3R1 / Fold change vs veh, PPP3R1 / RFU, PIK3R1 / Fold change vs veh, PIK3R1 / RFU, HNRNPA1 / Fold change vs veh, HNRNPA1 / RFU, RNF170 / Fold change vs veh, RNF170 / RFU, ZNF28 / Fold change vs veh, ZNF28 / RFU, RNGTT / Fold change vs veh, RNGTT / RFU, OGT / Fold change vs veh, OGT / RFU, BRD1 / Fold change vs veh, BRD1 / RFU, MARS / Fold change vs veh, MARS / RFU, ZNF655 / Fold change vs veh, ZNF655 / RFU, FAHD1 / Fold change vs veh, FAHD1 / RFU, BDP1 / Fold change vs veh, BDP1 / RFU, LRRCC1 / Fold change vs veh, LRRCC1 / RFU, ARID1A / Fold change vs veh, ARID1A / RFU, ZNF146 / Fold change vs veh, ZNF146 / RFU, ZNF330 / Fold change vs veh, ZNF330 / RFU, GPN3 / Fold change vs veh, GPN3 / RFU, C9orf123 / Fold change vs veh, C9orf123 / RFU, N4BP2L2 / Fold change vs veh, N4BP2L2 / RFU, ARFIP1 / Fold change vs veh, ARFIP1 / RFU, FAM179B / Fold change vs veh, FAM179B / RFU, BCL10 / Fold change vs veh, BCL10 / RFU, UHRF1BP1L / Fold change vs veh, UHRF1BP1L / RFU, BET1 / Fold change vs veh, BET1 / RFU, CNOT2 / Fold change vs veh, CNOT2 / RFU, ZNF268 / Fold change vs veh, ZNF268 / Fold change vs veh, ZNF507 / RFU, DGCR2 / Fold change vs veh, DGCR2 / RFU, WDSUB1 / Fold change vs veh, WDSUB1 / Fold change vs veh, HSP90B1 /// MIR3652 / RFU, ADSS / Fold change vs veh, ADSS / RFU, GK / Fold change vs veh, GK / RFU, ZNF148 / Fold change vs veh, ZNF148 / RFU, TAF9 / Fold change vs veh, TAF9 / RFU, SLC1A5 / Fold change vs veh, SLC1A5 / RFU, SLMO2 / Fold change vs veh, SLMO2 / RFU, ABCC4 / Fold change vs veh, ABCC4 / RFU, LOC101060439 /// RAP1B / Fold change vs veh, LOC101060439 /// RAP1B / RFU, RFX7 / Fold change vs veh, RFX7 / RFU, GTPBP10 / Fold change vs veh, GTPBP10 / RFU, CNEP1R1 / Fold change vs veh, CNEP1R1 / RFU, BIVM-ERCC5 /// ERCC5 / Fold change vs veh, BIVM-ERCC5 /// ERCC5 / RFU, ILF3 / Fold change vs veh, ILF3 / RFU 11762660_at / Fold change /veh 11762660_at / RFU VCAN (11757783_s_at) / Fold change /veh VCAN (11757783_s_at) / RFU DDX43 (11728927_at) / Fold change /veh DDX43 (11728927_at) / RFU KRT8 (11758188_x_at) / Fold change /veh KRT8 (11758188_x_at) / RFU NKD1 (11759106_at) / Fold change /veh NKD1 (11759106_at) / RFU SRD5A1 (11742802_a_at) / Fold change /veh SRD5A1 (11742802_a_at) / RFU TPSAB1 /// TPSB2 (11721975_s_at) / Fold change /veh TPSAB1 /// TPSB2 (11721975_s_at) / RFU GSTM3 (11746129_a_at) / Fold change /veh GSTM3 (11746129_a_at) / RFU IL23R (11737362_x_at) / Fold change /veh IL23R (11737362_x_at) / RFU TMEM51 (11727254_a_at) / Fold change /veh TMEM51 (11727254_a_at) / RFU PIWIL2 (11732686_x_at) / Fold change /veh PIWIL2 (11732686_x_at) / RFU ORM1 (11744905_x_at) / Fold change /veh ORM1 (11744905_x_at) / RFU CCDC152 (11743942_at) / Fold change /veh CCDC152 (11743942_at) / RFU ECM1 (11717891_a_at) / Fold change /veh ECM1 (11717891_a_at) / RFU IL23R (11748794_a_at) / Fold change /veh IL23R (11748794_a_at) / RFU TNFAIP8L3 (11732012_x_at) / Fold change /veh TNFAIP8L3 (11732012_x_at) / RFU MBOAT4 (11741988_at) / Fold change /veh MBOAT4 (11741988_at) / RFU 11764193_at / Fold change /veh 11764193_at / RFU TMEM53 (11763286_at) / Fold change /veh TMEM53 (11763286_at) / RFU MAGEB2 (11727129_at) / Fold change /veh MAGEB2 (11727129_at) / RFU TMEM200A (11744735_a_at) / Fold change /veh TMEM200A (11744735_a_at) / RFU CCDC152 (11751479_a_at) / Fold change /veh CCDC152 (11751479_a_at) / RFU FAM211A (11726209_a_at) / Fold change /veh FAM211A (11726209_a_at) / RFU RGS16 (11746705_a_at) / Fold change /veh RGS16 (11746705_a_at) / RFU VCAN (11755009_s_at) / Fold change /veh VCAN (11755009_s_at) / RFU RHOB (11743442_s_at) / Fold change /veh RHOB (11743442_s_at) / RFU RGS16 (11720943_a_at) / Fold change /veh RGS16 (11720943_a_at) / RFU RGS16 (11720944_at) / Fold change /veh RGS16 (11720944_at) / RFU, VPS4B / Fold change vs veh, VPS4B / RFU, CREB1 / Fold change vs veh, CREB1 / RFU, DNAJC13 / Fold change vs veh, DNAJC13 / RFU, GNAQ / Fold change vs veh, GNAQ / RFU, CDK5R1 / Fold change vs veh, CDK5R1 / RFU, ZRANB3 / Fold change vs veh, ZRANB3 / RFU, CUL4A / Fold change vs veh, CUL4A / RFU, CCNY / Fold change vs veh, CCNY / RFU, UFL1 / Fold change vs veh, UFL1 / RFU, COG3 / Fold change vs veh, COG3 / RFU, DIAPH2 / Fold change vs veh, DIAPH2 / RFU, SKA2 / Fold change vs veh, SKA2 / RFU, AFF3 / Fold change vs veh, AFF3 / RFU, LMF1 / Fold change vs veh, LMF1 / RFU, IPO11 / Fold change vs veh, IPO11 / RFU, DFFB / Fold change vs veh, DFFB / RFU, FOXP1 / Fold change vs veh, FOXP1 / RFU, CARD8 / Fold change vs veh, CARD8 / RFU, STRN3 / Fold change vs veh, STRN3 / RFU, ADK / Fold change vs veh, ADK / RFU, RASSF2 / Fold change vs veh, RASSF2 / RFU, WIPF1 / Fold change vs veh, WIPF1 / RFU, LARP1B / Fold change vs veh, LARP1B / RFU, RASA1 / Fold change vs veh, RASA1 / RFU, RB1 / Fold change vs veh, RB1 / RFU, PPFIA1 / Fold change vs veh, PPFIA1 / RFU, MAT2A / Fold change vs veh, MAT2A / RFU, CCT5 / Fold change vs veh, CCT5 / RFU, WDR92 / Fold change vs veh, WDR92 / RFU, CUX1 / Fold change vs veh, CUX1 / RFU, TTC7A / Fold change vs veh, TTC7A / RFU, TMEM135 / Fold change vs veh, TMEM135 / RFU, DEPTOR / Fold change vs veh, DEPTOR / RFU, CPM / Fold change vs veh, CPM / RFU, DNAJB6 / Fold change vs veh, DNAJB6 / RFU, CACNA2D3 / Fold change vs veh, CACNA2D3 / RFU, DTX4 / Fold change vs veh, DTX4 / RFU, TFCP2 / Fold change vs veh, TFCP2 / RFU, GMCL1 /// GMCL1P1 / Fold change vs veh, GMCL1 /// GMCL1P1 / RFU, AEBP2 / Fold change vs veh, AEBP2 / RFU, SNHG1 /// SNORD22 /// SNORD25 /// SNORD26 /// SNORD27 /// SNORD28 /// SNORD29 /// SNORD31 / Fold change vs veh, SNHG1 /// SNORD22 /// SNORD25 /// SNORD26 /// SNORD27 /// SNORD28 /// SNORD29 /// SNORD31 / Fold change (Aza/veh), C12orf56 (ProbeSet 11735607_a_at) / Fold change (ACY-1035/veh), C12orf56 (ProbeSet 11735607_a_at) / Fold change (Aza/veh), FGFR1OP (ProbeSet 11751329_s_at) / Fold change (ACY-1035/veh), FGFR1OP (ProbeSet 11751329_s_at) / Fold change (Aza/veh), VPS36 (ProbeSet 11739960_a_at) / Fold change (ACY-1035/veh), VPS36 (ProbeSet 11739960_a_at) / RFU SYPL1 (11715823_x_at) / Fold change /veh SYPL1 (11715823_x_at) / RFU IGFBP7 (11715501_s_at) / Fold change /veh IGFBP7 (11715501_s_at) / RFU REEP3 (11722064_at) / Fold change /veh REEP3 (11722064_at) / RFU IGLL1 (11728026_x_at) / Fold change /veh IGLL1 (11728026_x_at): dose or concentration left out as unconfirmed
Conditions: ProbeSet 11729173_a_at; LIST D

With `Nc1ccc(-c2cccs2)cc1NC(=O)c1ccc2c(c1)cc(C1CC1)n2CCN1CCOCC1` [ACY-1035] the “Fold change vs veh, SKA2” value was 0.84.
